Consider two molecules from ChEMBL document CHEMBL1127513, “Glutathione-S-transferase activates novel alkylating agents” (J Med Chem, 1994).

Format in all cases: functional, cell-based
Assay [1] deals with HT-29. Description: Inhibitory activity against HT-29 human colon carcinoma cells containing P1-1 GST for treatment time of 120 min. The following applies: HT-29, 2 h.
Assay [2] concerns HT-29. Kind of assay: Inhibitory activity against HT-29 human colon carcinoma cells containing P1-1 GST for treatment time of 60 min. The note with it: HT-29, 1 h.
Assay [3] concerns MCF7. Description: Inhibitory activity against MCF-7 pi cells containing P1-1 GST for treatment time of 120 min. The note with it: Homo sapiens, MCF7, 2 h.
The test system of assay [4] is MCF7. Kind of assay: Inhibitory activity against MCF-7 neo cells […] for treatment time of 120 min. The note with it: Homo sapiens, MCF7, 2 h.

`NC(CCC(=O)NC(CS(=O)(=O)CCOP(=O)(N(CCCl)CCCl)N(CCCl)CCCl)C(=O)NCC(=O)O)C(=O)O` (stereo not drawn): the IC50 (usually the concentration at which inhibition is half-maximal) in the assay with HT-29 [1] was determined as 68.9 µM; in the assay on HT-29 [2], 84.7 µM; in the assay with MCF7 [3], 20.9 µM; in the assay on MCF7 [4], 40.2 µM.

Turning to `NC(CCC(=O)NC(CS(=O)(=O)CCOP(=O)(N(CCCl)CCCl)N(CCCl)CCCl)C(=O)NC(C(=O)O)c1ccccc1)C(=O)O` (stereo not drawn), the IC50 in the assay with HT-29 [1] was 80.3 µM; in the assay with HT-29 [2], 170 µM; in the assay with MCF7 [3] it was 9.5 µM; in the assay on MCF7 [4] it was 37.5 µM.
